Laboratory results from patent publication US20250115597A1, “TYK2 INHIBITORS AND COMPOSITIONS AND METHODS THEREOF” (LYNK PHARMACEUTICALS CO. LTD., priority 2021, published 2025).

Experiments:
[1] = target: T1, Ba/F3-FL-TYK2-P760L cells (Homo sapiens, UniProt P29597, P760L, cells depend on it); experiment: Anti-proliferative assay, Ba/F3-FL-TYK2-P760L cells (Cell-Titer Glo); assay type: cell-based; details: 72 h, read-out: BaF3-FL-T2P760L IC50
T1 construct: BaF3-FL-T2P760L (nM)
Procedure, shortened: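 Compound exposure ran 72 h at 37 °C in 5% CO2 across nine 3-fold concentrations from a 20 μM top dose, added 24 h after seeding 2000 cells/well.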

[2] = target: T2, TYK2-JH2 domain (Homo sapiens, UniProt P29597); experiment: Binding activity test for JH2 domain of TYK2 (Tb-antibody/tracer FRET)
T2 construct: IC50 on JH2 domain activity (nM)
Description: Binding Activity Test for […] Domain of JAK1 and TYK2 The compounds are prepared in DMSO for 200× top dose, then serial dilute it with 27-fold for 3 more points. Add 8 μL/well in echo source plate, echo will add 75 nL/well with 3-fold serial dilution for 11 points in assay plate. 75 nL DMSO for high control and low control. […] For low control, add 5 μL/well assay buffer. And then spin down at 1000 rpm and centrifuge for 30 seconds. After enzyme system prepared, add 5 μL of Tb-antibody solution into each wells of assay plate. Spin down at 1000 rpm and centrifuge for 30 sec. After Tb-antibody added, also add 5 μL of tracer into the assay plate. Spin down at 1000 rpm and centrifuge for 30 sec. Incubate for 60 mins at 25° C. firstly and then continue to incubate the plate at 4° C. overnight. Read by envision in FRET mode. The Luminescence value was recorded by a multi-label reader Envision (PerkinElmer).

T2 sequence (P29597 589-875 limits assumed): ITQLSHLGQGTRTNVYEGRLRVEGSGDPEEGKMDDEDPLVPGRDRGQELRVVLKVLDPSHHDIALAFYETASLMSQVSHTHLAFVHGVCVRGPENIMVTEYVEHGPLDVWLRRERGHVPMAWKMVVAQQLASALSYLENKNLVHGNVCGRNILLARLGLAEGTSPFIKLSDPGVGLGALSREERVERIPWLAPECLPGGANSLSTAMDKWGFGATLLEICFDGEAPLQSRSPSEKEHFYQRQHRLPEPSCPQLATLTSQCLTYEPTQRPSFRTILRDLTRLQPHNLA
T1 sequence (P29597 whole entry P760L): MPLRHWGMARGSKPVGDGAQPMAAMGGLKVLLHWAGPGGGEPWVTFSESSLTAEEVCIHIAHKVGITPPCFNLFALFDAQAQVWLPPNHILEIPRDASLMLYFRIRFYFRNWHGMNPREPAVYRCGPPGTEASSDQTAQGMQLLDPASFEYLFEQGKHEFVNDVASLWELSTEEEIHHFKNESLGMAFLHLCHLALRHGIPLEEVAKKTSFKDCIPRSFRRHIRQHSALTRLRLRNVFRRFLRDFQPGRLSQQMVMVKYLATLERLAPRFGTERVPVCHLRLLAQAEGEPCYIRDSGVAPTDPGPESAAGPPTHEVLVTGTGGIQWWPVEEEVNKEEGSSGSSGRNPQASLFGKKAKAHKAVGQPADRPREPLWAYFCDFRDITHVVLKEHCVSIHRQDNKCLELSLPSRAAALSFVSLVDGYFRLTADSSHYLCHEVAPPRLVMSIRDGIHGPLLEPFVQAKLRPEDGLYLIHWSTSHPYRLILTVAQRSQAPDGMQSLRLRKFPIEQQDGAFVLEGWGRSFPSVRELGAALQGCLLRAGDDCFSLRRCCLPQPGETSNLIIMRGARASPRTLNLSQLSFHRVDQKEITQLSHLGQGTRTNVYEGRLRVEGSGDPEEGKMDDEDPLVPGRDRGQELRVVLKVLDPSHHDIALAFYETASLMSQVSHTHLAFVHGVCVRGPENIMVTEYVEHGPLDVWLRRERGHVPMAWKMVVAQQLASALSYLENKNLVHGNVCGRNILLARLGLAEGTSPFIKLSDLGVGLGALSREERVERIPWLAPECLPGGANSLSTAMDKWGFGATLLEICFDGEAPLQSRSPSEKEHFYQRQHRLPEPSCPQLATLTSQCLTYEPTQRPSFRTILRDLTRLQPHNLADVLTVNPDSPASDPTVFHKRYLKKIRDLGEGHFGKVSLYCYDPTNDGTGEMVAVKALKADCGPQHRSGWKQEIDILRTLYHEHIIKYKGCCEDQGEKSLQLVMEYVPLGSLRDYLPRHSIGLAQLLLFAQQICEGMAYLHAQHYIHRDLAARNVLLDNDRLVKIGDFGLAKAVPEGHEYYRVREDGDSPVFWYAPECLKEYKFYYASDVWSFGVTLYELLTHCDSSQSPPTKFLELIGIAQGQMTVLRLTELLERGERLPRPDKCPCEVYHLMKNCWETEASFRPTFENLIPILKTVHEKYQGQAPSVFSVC

GI50 [1] | IC50 [2] | SMILES
86.5 nM | 0.817 nM | [2H]C([2H])([2H])NC(=O)c1cnc(NC(=O)C2CC2)cc1Nc1csc2c(Cl)cn(CC)c(=O)c12 [Example 173, 4-((7-Chloro-5-ethyl-4-oxo-4,5-dihydrothieno[3,2-c]pyridin-3-yl)amino)-6-(cyclopropanecarboxamido)-N-(methyl-d3)nicotinamide]
68.6 nM | 0.343 nM | [2H]C([2H])([2H])NC(=O)c1nnc(NC(=O)C2CC2)cc1Nc1nn(CC)c2ccn(CC(F)(F)F)c(=O)c12 [Example 218, 6-(Cyclopropanecarboxamido)-4-((1-ethyl-4-oxo-5-(2,2,2-trifluoroethyl)-4,5-dihydro-1H-pyrazolo[4,3-c]pyridin-3-yl)amino)-N-(methyl-d3)pyridazine-3-carboxamide]
244 nM | 0.601 nM | [2H]C([2H])([2H])NC(=O)c1cnc(NC(=O)C2CC2)cc1Nc1cn(CC)c2ncn(CC(F)(F)F)c(=O)c12 [Example 212, 6-(Cyclopropanecarboxamido)-4-((7-ethyl-4-oxo-3-(2,2,2-trifluoroethyl)-4,7-dihydro-3H-pyrrolo[2,3-d]pyrimidin-5-yl)amino)-N-(methyl-d3)nicotinamide]
2610 nM | 25.6 nM | [2H]C([2H])([2H])NC(=O)c1cnc(NC(=O)C(F)(F)F)cc1Nc1ccc2cnn(CC)c2c1OC [Example 271, 4-((1-Ethyl-7-methoxy-1H-indazol-6-yl)amino)-N-(methyl-d3)-6-(2,2,2-trifluoroacetamido)nicotinamide]
562 nM | 0.756 nM | [2H]C([2H])([2H])NC(=O)c1cnc(NC(=O)C2CC2)cc1Nc1cn(C)c2ncn(CC(F)F)c(=O)c12 [Example 194, 6-(Cyclopropanecarboxamido)-4-((3-(2,2-difluoroethyl)-7-methyl-4-oxo-4,7-dihydro-3H-pyrrolo[2,3-d]pyrimidin-5-yl)amino)-N-(methyl-d3)nicotinamide]
728 nM | 2.15 nM | [2H]C([2H])([2H])NC(=O)c1cnc(NC(=O)C2CC2)cc1Nc1ccc2nc(C)n(CC)c2c1OC [Example 168, 6-(Cyclopropanecarboxamido)-4-((1-ethyl-7-methoxy-2-methyl-1H-benzo[d]imidazol-6-yl)amino)-N-(methyl-d3)nicotinamide]
4760 nM | 138 nM | CCn1ncc2ccc(Nc3cc(NC(=O)C4CC4)ncc3Cl)c(OC)c21 [Example 272, N-(5-chloro-4-((1-ethyl-7-methoxy-1H-indazol-6-yl)amino)pyridin-2-yl)cyclopropanecarboxamide]
75.2 nM | 0.27 nM | [2H]C([2H])([2H])NC(=O)c1cnc(NC(=O)C2CC2)cc1Nc1ncn2ncc(C#N)c2c1OC [Example 282, 4-((3-Cyano-4-methoxypyrazolo[1,5-c]pyrimidin-5-yl)amino)-6-(cyclopropanecarboxamido)-N-(methyl-d3)nicotinamide]
> 5000 nM | 69.2 nM | [2H]C([2H])([2H])NC(=O)c1cnc(NC(=O)C2CC2)cc1Nc1cnc2cnn(CC)c2c1OC [Example 265, 6-(Cyclopropanecarboxamido)-4-((1-ethyl-7-methoxy-1H-pyrazolo[4,3-b]pyridin-6-yl)amino)-N-(methyl-d3)nicotinamide]
205 nM | 1.31 nM | [2H]C([2H])([2H])NC(=O)c1cnc(NC(=O)C2CC2)cc1Nc1cn(C)c2ncn(C(C)C(F)(F)F)c(=O)c12 (stereo not shown) [Example 217, 6-(Cyclopropanecarboxamido)-N-(methyl-d3)-4-((7-methyl-4-oxo-3-(1,1,1-trifluoropropan-2-yl)-4,7-dihydro-3H-pyrrolo[2,3-d]pyrimidin-5-yl)amino)nicotinamide]
113 nM | 0.622 nM | [2H]C([2H])([2H])NC(=O)c1cnc(NC(=O)C2CC2)cc1Nc1cn(C)c2ccn(C(C)C(F)(F)F)c(=O)c12 (single isomer, unassigned) [Example 190A, (R*)-6-(Cyclopropanecarboxamido)-N-(methyl-d3)-4-((1-methyl-4-oxo-5-(1,1,1-trifluoropropan-2-yl)-4,5-dihydro-1H-pyrrolo[3,2-c]pyridin-3-yl)amino)nicotinamide]
40.2 nM | 0.18 nM | [2H]C([2H])([2H])NC(=O)c1cnc(NC(=O)C2CC2)cc1Nc1ncn2ncc(CC)c2c1OC [Example 280, 6-(Cyclopropanecarboxamido)-4-((3-ethyl-4-methoxypyrazolo[1,5-c]pyrimidin-5-yl)amino)-N-(methyl-d3)nicotinamide]
> 5000 nM | 5.21 nM | [2H]C([2H])([2H])NC(=O)c1cnc(NC(=O)C2CC2)cc1Nc1ccn2cnc(CC)c2c1OC [Example 57, 6-(Cyclopropanecarboxamido)-4-((1-ethyl-8-methoxyimidazo[1,5-a]pyridin-7-yl)amino)-N-(methyl-d3)nicotinamide]
1700 nM | 1.58 nM | [2H]C([2H])([2H])NC(=O)c1cnc(NC(=O)C2CC2)cc1Nc1ccc2nn(C)c(CC)c2c1OC [Example 232, 6-(Cyclopropanecarboxamido)-4-((3-ethyl-4-methoxy-2-methyl-2H-indazol-5-yl)amino)-N-(methyl-d3)nicotinamide]
159 nM | 0.532 nM | [2H]C([2H])([2H])NC(=O)c1cnc(NC(=O)C2CC2)cc1Nc1ccn2ncc(CCC)c2c1OC [Example 215, 6-(Cyclopropanecarboxamido)-4-((4-methoxy-3-propylpyrazolo[1,5-a]pyridin-5-yl)amino)-N-(methyl-d3)nicotinamide]
102 nM | 3.35 nM | COC(=O)c1cnc(NC(=O)C2CC2)cc1Nc1cn(C)c2ccn(C)c(=O)c12 [Example 116, Methyl 6-(cyclopropanecarboxamido)-4-((1,5-dimethyl-4-oxo-4,5-dihydro-1H-pyrrolo[3,2-c]pyridin-3-yl)amino)nicotinate]
217 nM | 0.557 nM | [2H]C([2H])([2H])NC(=O)c1cnc(NC(=O)C2CC2)cc1Nc1cn(CC(F)(F)F)c2ncn(CC)c(=O)c12 [Example 214, 6-(Cyclopropanecarboxamido)-4-((3-ethyl-4-oxo-7-(2,2,2-trifluoroethyl)-4,7-dihydro-3H-pyrrolo[2,3-d]pyrimidin-5-yl)amino)-N-(methyl-d3)nicotinamide]
> 5000 nM | 34.4 nM | [2H]C([2H])([2H])NC(=O)c1cnc(NC(=O)C2CC2)cc1Nc1ccc2cnn(CCN(C)C)c2c1OC [Example 274, 6-(Cyclopropanecarboxamido)-4-((1-(2-(dimethylamino)ethyl)-7-methoxy-1H-indazol-6-yl)amino)-N-(methyl-d3)nicotinamide]
252 nM | 1.3 nM | CCN1C(=O)Cc2ccc(Nc3cc(NC(=O)C4CC4)ncc3C(=O)NC)c(OC)c21 [Example 205, 6-(Cyclopropanecarboxamido)-4-((1-ethyl-7-methoxy-2-oxoindolin-6-yl)amino)-N-methylnicotinamide]
242 nM | > 298 nM | CCn1ncc2ccc(Nc3cc(NC(=O)C4CC4)ncc3C(=O)OC)c(OC(F)(F)F)c21 [Example 148, Methyl 6-(cyclopropanecarboxamido)-4-((1-ethyl-7-(trifluoromethoxy)-1H-indazol-6-yl)amino)nicotinate]
